The results in this text go back to PubChem BioAssay AID248 (DTP/NCI, 2004).

Values joined by “and” are separate entries in the source; they are usually repeats but may differ in a detail not shown here. Equal values may be shown once. Toxic doses and inconclusive results are not listed.

The subject of the assay is L1210 leukemia ip in BDF1 mice, survival T/C. Description: NCI In Vivo Anticancer Drug Screen. Data for tumor model L1210 Leukemia (intraperitoneal) in B6D2F1 (BDF1) mice. As to conditions: higher = longer survival. The method in brief: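 Ratio derived from survival: compound-dosed mice over vehicle-dosed mice, all bearing a transplantable tumor.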
Where [1] appears, read: endpoint: mean survival time, dose: 100.0 mg/kg/injection, schedule: Q04DX002 (ip), vehicle: saline.
Setting [2] is: endpoint: mean survival time, dose: 200.0 mg/kg/injection, schedule: Q04DX002 (ip), vehicle: saline.
Setting [3] is: endpoint: mean survival time, dose: 400.0 mg/kg/injection, schedule: Q04DX002 (ip), vehicle: saline.

With `CC(C)C1CCC(NC(=O)N(CCF)N=O)CC1` (stereo not drawn), the T/C was 108 % of control (endpoint: mean survival time, dose: 9.5 mg/kg/injection, schedule: Q01DX001 (ip), vehicle: other); 165 % of control (endpoint: mean survival time, dose: 23.0 mg/kg/injection, schedule: Q01DX001 (ip), vehicle: other); 187 % of control (endpoint: mean survival time, dose: 30.0 mg/kg/injection, schedule: Q01DX001 (ip), vehicle: other); 209 % of control (endpoint: mean survival time, dose: 38.0 mg/kg/injection, schedule: Q01DX001 (ip), vehicle: other); 212 % of control (endpoint: mean survival time, dose: 46.0 mg/kg/injection, schedule: Q01DX001 (ip), vehicle: other); 312 % of control (endpoint: mean survival time, dose: 62.0 mg/kg/injection, schedule: Q01DX001 (ip), vehicle: other).
As to `CN(C)c1ccc2nc3c(C(=O)O)cc(=O)c(O)c-3oc2c1`, the T/C was 104 % of control (endpoint: mean survival time, dose: 50.0 mg/kg/injection, schedule: Q01DX001 (ip), vehicle: carboxymethylcellulose (CMC)) and 101 % of control (endpoint: mean survival time, dose: 100.0 mg/kg/injection, schedule: Q01DX001 (ip), vehicle: carboxymethylcellulose (CMC)).
For `O=S(=O)(OCCCl)c1ccc(Cl)c(S(=O)(=O)OCCCl)c1`, for the setting “endpoint: mean survival time, dose: 100.0 mg/kg/injection, schedule: Q04DX003 (ip), vehicle: saline with Tween-80”, the T/C is 97 % of control.
Take `COC(=O)C1(C)COP(=O)(Nc2ccc(OC)cc2)OC1` (stereo not drawn): the T/C reads like this: (endpoint: mean survival time, dose: 100.0 mg/kg/injection, schedule: Q01DX001 (ip), vehicle: saline) 89 % of control; (endpoint: mean survival time, dose: 200.0 mg/kg/injection, schedule: Q01DX001 (ip), vehicle: saline) 89 % of control.
For the compound `CN(C)CCOC(=O)c1ccc(C=O)cc1`, the T/C is 105 % of control under setting [1], 110 % of control under setting [2] and 90 % of control under setting [3].
For `OCC1OC(n2cnc3c(=S)nc[nH]c32)C(O)C1O` (stereo not drawn), the T/C is 103 % of control (endpoint: mean survival time, dose: 4.69 mg/kg/injection, schedule: Q01DX009 (ip), vehicle: water); 109 % of control (endpoint: mean survival time, dose: 9.38 mg/kg/injection, schedule: Q01DX009 (ip), vehicle: water); 117 % of control and 120 % of control (endpoint: mean survival time, dose: 10.0 mg/kg/injection, schedule: Q01DX009 (ip), vehicle: saline); 121 % of control (endpoint: mean survival time, dose: 14.02 mg/kg/injection, schedule: Q01DX Z (ip), vehicle: carboxymethylcellulose (CMC)); 119 % of control (endpoint: mean survival time, dose: 17.88 mg/kg/injection, schedule: Q01DX Z (ip), vehicle: carboxymethylcellulose (CMC)); 122 % of control (endpoint: mean survival time, dose: 18.25 mg/kg/injection, schedule: Q01DX Z (ip), vehicle: carboxymethylcellulose (CMC)). Moreover, the T/C is 117 % of control (endpoint: mean survival time, dose: 18.75 mg/kg/injection, schedule: Q01DX009 (ip), vehicle: water); 111 % of control (endpoint: mean survival time, dose: 20.0 mg/kg/injection, schedule: Q01DX010 (ip), vehicle: saline); 115 % of control (endpoint: mean survival time, dose: 23.83 mg/kg/injection, schedule: Q01DX Z (ip), vehicle: carboxymethylcellulose (CMC)); 123 % of control (endpoint: mean survival time, dose: 35.75 mg/kg/injection, schedule: Q01DX Z (ip), vehicle: carboxymethylcellulose (CMC)); 123 % of control (endpoint: mean survival time, dose: 36.5 mg/kg/injection, schedule: Q01DX Z (ip), vehicle: carboxymethylcellulose (CMC)); 112 % of control (endpoint: mean survival time, dose: 37.5 mg/kg/injection, schedule: Q01DX009 (ip), vehicle: water). The T/C was 100 % of control (endpoint: mean survival time, dose: 37.5 mg/kg/injection, schedule: Q01DX Z (ip), vehicle: carboxymethylcellulose (CMC)); 121 % of control (endpoint: mean survival time, dose: 50.0 mg/kg/injection, schedule: Q01DX009 (ip), vehicle: saline); 151 % of control (endpoint: mean survival time, dose: 75.0 mg/kg/injection, schedule: Q01DX015 (ip), vehicle: carboxymethylcellulose (CMC)); 113 % of control (endpoint: mean survival time, dose: 75.0 mg/kg/injection, schedule: Q01DX Z (ip), vehicle: carboxymethylcellulose (CMC)); 123 % of control (endpoint: mean survival time, dose: 100.0 mg/kg/injection, schedule: Q01DX005 (ip), vehicle: saline); 114 % of control (endpoint: mean survival time, dose: 100.0 mg/kg/injection, schedule: Q01DX009 (ip), vehicle: carboxymethylcellulose (CMC)). Moreover, the T/C was 152 % of control (endpoint: mean survival time, dose: 107.25 mg/kg/injection, schedule: Q01DX Z (ip), vehicle: carboxymethylcellulose (CMC)); 98 % of control (endpoint: mean survival time, dose: 120.0 mg/kg/injection, schedule: Q01DX001 (ip), vehicle: carboxymethylcellulose (CMC)); 114 % of control (endpoint: mean survival time, dose: 125.0 mg/kg/injection, schedule: Q03HX024 (ip), vehicle: saline); 107 % of control (endpoint: mean survival time, dose: 150.0 mg/kg/injection, schedule: Q## X Z (ip), vehicle: carboxymethylcellulose (CMC)); 153 % of control and 155 % of control (endpoint: mean survival time, dose: 160.0 mg/kg/injection, schedule: Q01DX010 (ip), vehicle: saline); 108 % of control (endpoint: mean survival time, dose: 180.0 mg/kg/injection, schedule: Q01DX001 (ip), vehicle: alkali diluted with saline). The T/C is 118 % of control (endpoint: mean survival time, dose: 180.0 mg/kg/injection, schedule: Q01DX001 (ip), vehicle: carboxymethylcellulose (CMC)); 104 % of control (endpoint: mean survival time, dose: 188.0 mg/kg/injection, schedule: Q03HX024 (ip), vehicle: clinical formulation); 115 % of control (endpoint: mean survival time, dose: 188.0 mg/kg/injection, schedule: Q03HX024 (ip), vehicle: saline); 163 % of control and 181 % of control (endpoint: mean survival time, dose: 200.0 mg/kg/injection, schedule: Q01DX009 (ip), vehicle: saline); 119 % of control (endpoint: mean survival time, dose: 270.0 mg/kg/injection, schedule: Q01DX001 (ip), vehicle: alkali diluted with saline); 114 % of control (endpoint: mean survival time, dose: 270.0 mg/kg/injection, schedule: Q01DX001 (ip), vehicle: carboxymethylcellulose (CMC)). Further, the T/C (endpoint: mean survival time, dose: 300.0 mg/kg/injection, schedule: Q03HX024 (ip), vehicle: saline) was 95 % of control and 108 % of control; the T/C (endpoint: mean survival time, dose: 320.0 mg/kg/injection, schedule: Q01DX009 (ip), vehicle: saline) is 152 % of control and 166 % of control; the T/C (endpoint: mean survival time, dose: 600.0 mg/kg/injection, schedule: Q01DX001 (ip), vehicle: alkali diluted with saline) is 120 % of control; the T/C (endpoint: mean survival time, dose: 600.0 mg/kg/injection, schedule: Q## X Z (ip), vehicle: carboxymethylcellulose (CMC)) was 93 % of control; the T/C (endpoint: mean survival time, dose: 800.0 mg/kg/injection, schedule: Q01DX001 (ip), vehicle: saline) was 103 % of control; the T/C (endpoint: mean survival time, dose: 800.0 mg/kg/injection, schedule: Q01DX009 (ip), vehicle: carboxymethylcellulose (CMC)) was 122 % of control. Besides, the T/C is 121 % of control (endpoint: mean survival time, dose: 1000.0 mg/kg/injection, schedule: Q## X Z (ip), vehicle: carboxymethylcellulose (CMC)); 107 % of control (endpoint: mean survival time, dose: 1200.0 mg/kg/injection, schedule: Q01DX001 (ip), vehicle: saline); 114 % of control (endpoint: mean survival time, dose: 1600.0 mg/kg/injection, schedule: Q01DX001 (ip), vehicle: saline); 155 % of control (endpoint: median survival time, dose: 50.0 mg/kg/injection, schedule: Q03HX024 (ip), vehicle: other); 155 % of control (endpoint: median survival time, dose: 100.0 mg/kg/injection, schedule: Q03HX024 (ip), vehicle: other); 150 % of control (endpoint: median survival time, dose: 100.0 mg/kg/injection, schedule: Q03HX024 (sc), vehicle: other). For the same compound, the T/C is 155 % of control (endpoint: median survival time, dose: 200.0 mg/kg/injection, schedule: Q03HX024 (ip), vehicle: other); 155 % of control (endpoint: median survival time, dose: 200.0 mg/kg/injection, schedule: Q03HX024 (sc), vehicle: other); 111 % of control (endpoint: median survival time, dose: 400.0 mg/kg/injection, schedule: Q03HX024 (ip), vehicle: other); 111 % of control (endpoint: median survival time, dose: 800.0 mg/kg/injection, schedule: Q01DX001 (ip), vehicle: other); 111 % of control (endpoint: median survival time, dose: 800.0 mg/kg/injection, schedule: Q01DX001 (sc), vehicle: other); 122 % of control (endpoint: median survival time, dose: 800.0 mg/kg/injection, schedule: Q04DX003 (ip), vehicle: other). Also, the T/C was 122 % of control (endpoint: median survival time, dose: 800.0 mg/kg/injection, schedule: Q04DX003 (sc), vehicle: other); 116 % of control (endpoint: median survival time, dose: 1600.0 mg/kg/injection, schedule: Q01DX001 (ip), vehicle: other); 116 % of control (endpoint: median survival time, dose: 1600.0 mg/kg/injection, schedule: Q01DX001 (sc), vehicle: other); 100 % of control (endpoint: median survival time, dose: 3200.0 mg/kg/injection, schedule: Q01DX009 (sc), vehicle: other); 150 % of control (endpoint: median survival time, dose: 3200.0 mg/kg/injection, schedule: Q04DX003 (sc), vehicle: other).
As for `CCC1CCC(N)CC1` (stereo not drawn), the T/C (endpoint: mean survival time, dose: 75.0 mg/kg/injection, schedule: Q01DX001 (ip), vehicle: saline) is 100 % of control.
Take `CCCC(=O)N1CCCC(C)C1` (stereo not drawn): the T/C is, setting by setting: under setting [1], 111 % of control; under setting [2], 107 % of control; under setting [3], 104 % of control.
`Cc1ccc(NC2=CC(=O)c3ccccc3C2=O)cc1`: the T/C (endpoint: mean survival time, dose: 75.0 mg/kg/injection, schedule: Q01DX001 (ip), vehicle: carboxymethylcellulose (CMC)) was 93 % of control and the T/C (endpoint: mean survival time, dose: 150.0 mg/kg/injection, schedule: Q01DX001 (ip), vehicle: carboxymethylcellulose (CMC)) is 95 % of control.
